Reference: ChEMBL document CHEMBL4420066, “Aryl amine substituted quinoxaline used as anticancer drugs” (2017)
The source made the active and inactive calls. The calls are words filed in the database; no cut-off is given here.

Assays:
[1] = test system: Hep 3B2; assay: Inhibition of PP2A-A protein expression in human Hep3B cells at 1 uM incubated for 24 hrs by Western blotting analysis; assay type: functional, cell-based
[2] = species: Homo sapiens; assay: Inhibition of PP2A-C protein expression in human PLC5 cells at 1 uM incubated for 24 hrs by Western blotting analysis; assay type: functional, cell-based
[3] = test system: Hep 3B2; assay: Inhibition of PP2A-C protein expression in human Hep3B cells at 1 uM incubated for 24 hrs by Western blotting analysis; assay type: functional, cell-based
[4] = target: T1, Serine/threonine-protein kinase AKT (Homo sapiens) (UniProt P31751+Q9Y243+P31749); assay: Inhibition of Akt phosphorylation at S473 residue in human PLC5 cells by Western blotting analysis; assay type: cell-based
[5] = Inhibition of CIP2A protein expression in human PLC5 cells assessed as CIP2A protein expression ratio level at 1 uM by Western blotting analysis (Rvb =1); assay type: functional
[6] = test system: HA22T cell line; assay: Induction of necrosis in human HA22T cells >= 2 uM incubated for 48 hrs by annexin-V-FITC staining based by flow cytometry relative to control; assay type: functional
[7] = test system: SK-HEP1; assay: Induction of apoptosis in human SKHEP1 cells assessed as accumulation at subG1 phase at 0.5 to 4 uM by flow cytometry; assay type: functional, cell-based
[8] = species: Homo sapiens; assay: Inhibition of human CIP2A gene promoter activity in human PLC5 cells by luciferase reporter gene assay; assay type: cell-based
[9] = test system: HA22T cell line; assay: Inhibition of CIP2A protein expression in human HA22T cells assessed as CIP2A protein expression ratio level at 2 uM by Western blotting analysis (Rvb =1); assay type: functional
[10] = test system: Mus musculus; assay: Activation of PP2A activity in tumor of human PLC5 cells xenografted in mouse at 10 mg/kg dosed for 4 weeks; assay type: functional, organism-based
[11] = species: Homo sapiens; assay: Induction of apoptosis in human PLC5 cells at 2 uM incubated for 24 hrs in presence of PP2A-C siRNA by annexin-V-FITC staining based by flow cytometry; assay type: functional, cell-based
[12] = test system: SK-HEP1; assay: Inhibition of PP2A-C protein expression in human SKHEP1 cells at 1 uM incubated for 24 hrs by Western blotting analysis; assay type: functional, cell-based
[13] = test system: Hep 3B2; assay: Induction of apoptosis in human Hep3B cells assessed as accumulation at subG1 phase at 0.5 to 4 uM by flow cytometry; assay type: functional, cell-based
[14] = species: Homo sapiens; assay: Inhibition of His-tagged recombinant human SET1 protein (1 to 290 amino acids) expressed in Escherichia coli interaction with N-terminal GST-tagged recombinant human PP2A-C (1 to 309 amino acids) assessed as minimal concentration causing disruption of SET-PP2Ac binding by SPR assay
[15] = test system: HA22T cell line; assay: Induction of apoptosis in human HA22T cells assessed as caspase-9 activation at 0.5 to 4 uM incubated for 48 hrs by Western blotting analysis; assay type: functional, cell-based
[16] = target: T1, Serine/threonine-protein kinase AKT (Homo sapiens); assay: Inhibition of Akt phosphorylation at S473 residue in human SKHEP1 cells by Western blotting analysis; assay type: cell-based
[17] = target: T1, Serine/threonine-protein kinase AKT (Homo sapiens); assay: Inhibition of Akt phosphorylation at S473 residue in human PLC5 cells at 2 uM incubated for 24 hrs in presence of PP2A-C siRNA by Western blotting analysis; assay type: cell-based
[18] = test system: HA22T cell line; assay: Inhibition of CIP2A protein expression in human HA22T cells by Western blotting analysis; assay type: functional, cell-based
[19] = species: Homo sapiens; assay: Activation of PP2A in human PLC5 cells assessed as minimal concentration causing increase in protein phosphatase activity incubated for 24 hrs using phosphopeptide substrate incubated for 10 mins by malachite green-phosphate complex assay; assay type: cell-based
[20] = species: Homo sapiens; assay: Induction of apoptosis in human PLC5 cells assessed as induction of PARP cleavage at 2 uM in presence of caspase inhibitor Z-VAD-fmk incubated for 48 hrs by Western blotting analysis; assay type: functional, cell-based
[21] = species: Homo sapiens; assay: Inhibition of CIP2A mRNA expression in human PLC5 cells at 1 to 4 uM by RT-PCR analysis; assay type: functional, cell-based
[22] = species: Homo sapiens; assay: Inhibition of PP2A-A protein expression in human PLC5 cells at 1 uM incubated for 24 hrs by Western blotting analysis; assay type: functional, cell-based
[23] = species: Homo sapiens; assay: Activation of PP2A in human PLC5 cells assessed as increase in protein phosphatase activity at 1 uM incubated for 24 hrs using phosphopeptide substrate incubated for 10 mins by malachite green-phosphate complex assay; assay type: cell-based
[24] = test system: HA22T cell line; assay: Induction of apoptosis in human HA22T cells assessed as caspase-3 activation at 0.5 to 4 uM incubated for 48 hrs by Western blotting analysis; assay type: functional, cell-based
[25] = species: Homo sapiens; assay: Inhibition of human CIP2A gene promoter in human PLC5 cells with ectopic overexpression of GFP-tagged Elk-1 assessed as inhibition of ELK1 protein expression at 2 uM by Western blotting analysis; assay type: cell-based
[26] = test system: HA22T cell line; assay: Inhibition of CIP2A protein expression in human HA22T cells at 1 uM by Western blotting analysis; assay type: functional, cell-based; conditions: TDE = time-dependent effect
[27] = species: Homo sapiens; assay: Induction of apoptosis in human PLC5 cells assessed as induction of DNA fragmentation at 1 uM incubated for 24 hrs by ELISA; assay type: functional, cell-based
[28] = test system: Hep 3B2; assay: Induction of apoptosis in human Hep3B cells at 2 uM in presence of caspase inhibitor Z-VAD-fmk incubated for 48 hrs by annexin-V-FITC staining based by flow cytometry; assay type: functional, cell-based
[29] = test system: HA22T cell line; assay: Inhibition of PP2A-B5 protein expression in human HA22T cells at 1 uM incubated for 24 hrs by Western blotting analysis; assay type: functional, cell-based
[30] = test system: SK-HEP1; assay: Induction of apoptosis in human SKHEP1 cells >= 2 uM incubated for 48 hrs by annexin-V-FITC staining based by flow cytometry relative to control; assay type: functional
[31] = species: Homo sapiens; assay: Inhibition of human CIP2A gene promoter in human PLC5 cells assessed as inhibition of ELK1 protein expression by Western blotting analysis; assay type: cell-based
[32] = test system: Hep 3B2; assay: Induction of apoptosis in human Hep3B cells assessed as caspase-9 activation at 0.5 to 4 uM incubated for 48 hrs by Western blotting analysis; assay type: functional, cell-based
[33] = Inhibition of CIP2A protein expression in human PLC5 cells assessed as CIP2A protein expression ratio level at 4 uM by Western blotting analysis (Rvb =1); assay type: functional
[34] = species: Homo sapiens; assay: Induction of apoptosis in human PLC5 cells at 2 uM in presence of caspase inhibitor Z-VAD-fmk incubated for 48 hrs by annexin-V-FITC staining based by flow cytometry; assay type: functional, cell-based
[35] = test system: Hep 3B2; assay: Inhibition of CIP2A protein expression in human Hep3B cells by Western blotting analysis; assay type: functional, cell-based
[36] = species: Homo sapiens; assay: Induction of apoptosis in human PLC5 cells assessed as caspase-3 activation at 0.5 to 4 uM incubated for 48 hrs by Western blotting analysis; assay type: functional, cell-based
[37] = test system: SK-HEP1; assay: Induction of necrosis in human SKHEP1 cells >= 2 uM incubated for 48 hrs by annexin-V-FITC staining based by flow cytometry relative to control; assay type: functional
[38] = species: Homo sapiens; assay: Activation of PP2A in human Hep3B cells assessed as increase in protein phosphatase activity at 1 uM incubated for 24 hrs using phosphopeptide substrate incubated for 10 mins by malachite green-phosphate complex assay; assay type: cell-based
[39] = species: Homo sapiens; assay: Activation of PP2A in human HA22T cells assessed as increase in protein phosphatase activity at 1 uM incubated for 24 hrs using phosphopeptide substrate incubated for 10 mins by malachite green-phosphate complex assay; assay type: cell-based

T1 sequence (P31749 whole entry, looked up): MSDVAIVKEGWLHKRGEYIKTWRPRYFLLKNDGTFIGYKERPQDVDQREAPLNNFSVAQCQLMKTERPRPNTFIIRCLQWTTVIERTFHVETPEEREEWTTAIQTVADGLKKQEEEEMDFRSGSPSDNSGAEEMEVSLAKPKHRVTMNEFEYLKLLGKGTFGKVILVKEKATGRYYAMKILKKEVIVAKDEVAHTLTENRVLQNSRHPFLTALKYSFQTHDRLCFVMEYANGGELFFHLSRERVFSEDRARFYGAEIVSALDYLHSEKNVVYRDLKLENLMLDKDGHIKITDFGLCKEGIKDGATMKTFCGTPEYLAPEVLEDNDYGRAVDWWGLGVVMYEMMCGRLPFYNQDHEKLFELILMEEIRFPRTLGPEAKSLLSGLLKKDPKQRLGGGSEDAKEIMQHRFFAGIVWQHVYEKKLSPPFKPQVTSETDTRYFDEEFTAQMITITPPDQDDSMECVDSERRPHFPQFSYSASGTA
T1 sequence (P31751 whole entry, looked up): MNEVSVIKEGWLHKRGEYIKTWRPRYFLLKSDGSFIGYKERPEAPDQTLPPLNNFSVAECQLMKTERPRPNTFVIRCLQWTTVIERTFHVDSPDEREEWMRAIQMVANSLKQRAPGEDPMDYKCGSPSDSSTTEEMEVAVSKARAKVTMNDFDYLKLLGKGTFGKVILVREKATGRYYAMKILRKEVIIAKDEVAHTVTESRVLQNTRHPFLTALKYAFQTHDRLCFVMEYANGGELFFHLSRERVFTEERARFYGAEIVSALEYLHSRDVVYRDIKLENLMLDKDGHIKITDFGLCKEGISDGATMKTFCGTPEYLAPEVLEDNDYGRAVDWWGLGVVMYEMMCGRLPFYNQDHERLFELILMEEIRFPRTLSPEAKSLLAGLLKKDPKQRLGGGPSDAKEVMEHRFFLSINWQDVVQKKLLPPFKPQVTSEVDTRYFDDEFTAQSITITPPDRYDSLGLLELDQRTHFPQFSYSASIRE
T1 sequence (Q9Y243 whole entry, looked up): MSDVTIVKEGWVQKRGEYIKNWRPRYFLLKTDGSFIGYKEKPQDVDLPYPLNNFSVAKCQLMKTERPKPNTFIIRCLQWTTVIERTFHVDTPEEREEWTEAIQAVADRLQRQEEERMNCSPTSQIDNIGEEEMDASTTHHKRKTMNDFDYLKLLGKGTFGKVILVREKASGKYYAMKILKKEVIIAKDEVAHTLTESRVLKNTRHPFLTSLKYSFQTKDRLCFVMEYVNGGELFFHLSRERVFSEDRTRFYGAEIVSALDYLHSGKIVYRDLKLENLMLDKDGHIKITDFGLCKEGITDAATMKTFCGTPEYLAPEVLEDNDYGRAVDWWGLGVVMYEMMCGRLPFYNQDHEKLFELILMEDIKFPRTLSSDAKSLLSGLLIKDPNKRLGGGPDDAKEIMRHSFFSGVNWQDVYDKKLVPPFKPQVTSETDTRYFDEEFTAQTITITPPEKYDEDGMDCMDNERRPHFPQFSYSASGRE

C#Cc1cccc(Nc2nc3ccccc3nc2Nc2cccc(C#C)c2)c1
inhibition [1]: inactive | inhibition [2]: inactive | inhibition [3]: inactive | inhibition [4]: Dose-dependent effect | Ratio [5]: 0.28 | Activity [6]: 50% | Activity [7]: Active | inhibition [8]: Dose-dependent effect | Ratio [9]: 0.36 | Activity [10]: Active | Activity [11]: inactive | inhibition [12]: inactive | Activity [13]: Active | MEC [14]: 100 to 200 nM | Activity [15]: Dose-dependent effect | inhibition [16]: Dose-dependent effect | inhibition [17]: inactive | inhibition [18]: Dose-dependent effect | MEC [19]: 100 to 200 nM | Activity [20]: inactive | inhibition [21]: Active | inhibition [22]: inactive | Activity [23]: Active | Activity [24]: Dose-dependent effect | inhibition [25]: inactive | inhibition [26]: Tde | Activity [27]: Active | Activity [28]: inactive | inhibition [29]: inactive | Activity [30]: 50% | inhibition [31]: Dose-dependent effect | Activity [32]: Dose-dependent effect | Ratio [33]: 0.01 | Activity [34]: inactive | inhibition [35]: Dose-dependent effect | Activity [36]: Dose-dependent effect | Activity [37]: 50% | Activity [38]: Active | Activity [39]: Active
